# Measured values from US20110059962A1, “TRANSCRIPTION FACTOR MODULATING COMPOUNDS AND METHODS OF USE THEREOF” (priority 2009, published 2011).
# Legend:
# [1] = test system: Y. pseudotuberculosis cytotoxicity toward J774 cells; experiment: microbe, parasite or virus in culture; details: Yersinia pseudotuberculosis, J774, read-out: % Cytotoxicity
# [2] = test system: P. aeruginosa cytotoxicity toward J774 cells; experiment: Inhibition of P. aeruginosa cytotoxicity toward J774 macrophage-like cells, whole cell LDH release assay (CytoTox 96); parameters: dose or concentration left out as unconfirmed; details: Pseudomonas aeruginosa, J774, read-out: % Cytotoxicity
# LcrF (VirF) = LcrF (VirF) (Yersinia pestis, UniProt P28808); experiment: biochemical; format: binding, Y. pseudotuberculosis
# ExsA = target: T1, ExsA (Pseudomonas aeruginosa, UniProt P26993); experiment: Inhibition of ExsA-DNA binding, cell-free chemiluminescence assay; parameters: species or system P. aeruginosa
# T1 construct: made in house
# T1 sequence (P26993 1-278): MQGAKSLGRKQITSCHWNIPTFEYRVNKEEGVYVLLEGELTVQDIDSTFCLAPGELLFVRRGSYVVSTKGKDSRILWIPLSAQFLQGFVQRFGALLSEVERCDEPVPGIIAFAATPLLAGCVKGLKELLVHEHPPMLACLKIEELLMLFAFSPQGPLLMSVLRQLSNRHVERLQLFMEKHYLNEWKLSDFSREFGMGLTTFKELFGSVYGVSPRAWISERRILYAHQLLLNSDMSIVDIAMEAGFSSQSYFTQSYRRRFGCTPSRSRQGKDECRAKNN
# Chain of LcrF (VirF) (P28808 whole entry, looked up): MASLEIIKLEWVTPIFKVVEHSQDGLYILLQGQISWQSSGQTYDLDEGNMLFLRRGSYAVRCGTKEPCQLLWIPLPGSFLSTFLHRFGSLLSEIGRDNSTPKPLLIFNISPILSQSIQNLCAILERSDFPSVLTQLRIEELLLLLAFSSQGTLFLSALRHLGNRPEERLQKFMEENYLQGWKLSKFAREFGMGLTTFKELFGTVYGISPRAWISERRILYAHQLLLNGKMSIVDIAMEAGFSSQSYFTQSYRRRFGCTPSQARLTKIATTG
SMILES,activity at 50 µg/mL [1] [%],activity [2] [%],IC50 (LcrF (VirF)) [µM],IC50 (ExsA) [µM]
O=C(/C=C/c1ccc(F)cc1)Nc1ccc(-c2nc3ccc(Cl)cc3n2O)cc1 [AG],75 to 99,75 to 99,> 50,
O=C(O)Cc1cc([N+](=O)[O-])cc2c1nc(-c1ccc(NC(=O)/C=C/c3ccc(F)cc3)cc1)n2O [AH],75 to 99,75 to 99,10 to 25,
CC(=O)c1ccc(/C=C/C(=O)Nc2ccc(-c3nc4ccc(Cl)cc4n3O)cc2)cc1 [B],75 to 99,75 to 99,> 50,10 to 25
"CC(=O)c1ccc(/C=C/C(=O)Nc2ccc(-c3nc4ccc(C#N)cc4n3O)cc2)cn1 [Compound A, (E)-3-(6-Acetyl-pyridin-3-yl)-N-[4-(6-cyano-1-hydroxy-1H-benzoimidazol-2-yl)-phenyl]-acrylamide]",< 75,< 75,25 to 50,> 50
"O=C(O)Cc1cc([N+](=O)[O-])cc2c1nc(-c1ccc(NC(=O)c3ccc(-n4ccnc4)cc3)cc1)n2O [Compound AA, {1-Hydroxy-2-[4-(4-imidazol-1-yl-benzoylamino)-phenyl]-6-nitro-1H-benzoimidazol-4-yl}-acetic acid]",< 75,< 75,< 10,
"CC(=O)c1ccc2nc(-c3ccc(NC(=O)/C=C/c4ccc(F)cc4)cc3)n(O)c2c1 [Compound AB, (E)-N-[4-(6-Acetyl-1-hydroxy-1H-benzoimidazol-2-yl)-phenyl]-3-(4-fluoro-phenyl)-acrylamide]",75 to 99,75 to 99,25 to 50,
"O=C(/C=C/c1ccc(F)cc1)Nc1ccc(-c2nc3ccc(F)cc3n2O)cc1 [Compound AC, (E)-N-[4-(6-Fluoro-1-hydroxy-1H-benzoimidazol-2-yl)-phenyl]-3-(4-fluoro-phenyl)-acrylamide]",75 to 99,75 to 99,> 50,
"CS(=O)(=O)c1ccc2nc(-c3ccc(NC(=O)/C=C/c4ccc(F)cc4)cc3)n(O)c2c1 [Compound AD, (E)-3-(4-Fluoro-phenyl)-N-[4-(1-hydroxy-6-methanesulfonyl-1H-benzoimidazol-2-yl)-phenyl]-acrylamide]",75 to 99,75 to 99,> 50,
"O=C(/C=C/c1ccc(F)cc1)Nc1ccc(-c2nc3ccccc3n2O)cc1 [Compound AE, (E)-3-(4-Fluoro-phenyl)-N-[4-(1-hydroxy-1H-benzoimidazol-2-yl)-phenyl]-acrylamide]",75 to 99,75 to 99,> 50,
"O=C(/C=C/c1ccc(F)cc1)Nc1ccc(-c2nc3ccc(C(F)(F)F)cc3n2O)cc1 [Compound AF, (E)-3-(4-Fluoro-phenyl)-N-[4-(1-hydroxy-6-trifluoromethyl-1H-benzoimidazol-2-yl)-phenyl]-acrylamide]",75 to 99,75 to 99,> 50,
"O=C(/C=C/c1ccc(F)cc1)Nc1ccc(-c2nc3ccc(C(=O)O)cc3n2O)cc1 [Compound AI, 2-{4-[(E)-3-(4-Fluoro-phenyl)-acryloylamino]-phenyl}-3-hydroxy-3H-benzoimidazole-5-carboxylic acid]",< 75,75 to 99,25 to 50,
O=C(Nc1ccc(-c2nc3ccc([N+](=O)[O-])cc3n2O)cc1)c1ccc(-n2cccn2)nc1 [Compound I],< 75,75 to 99,25 to 50,25 to 50
"O=C(Nc1ccc(-c2nc3ccc([N+](=O)[O-])cc3n2O)cc1)c1cccc(N2CCOCC2)n1 [Compound N, 6-Morpholin-4-yl-pyridine-2-carboxylic acid [4-(1-hydroxy-6-nitro-1H-benzoimidazol-2-yl)-phenyl]-amide]",75 to 99,75 to 99,> 50,10 to 25
"CC(=O)c1ccc(C(=O)Nc2ccc(-c3nc4c(CC(=O)O)cc([N+](=O)[O-])cc4n3O)cc2)cc1 [Compound R, {2-[4-(4-Acetyl-benzoylamino)-phenyl]-1-hydroxy-6-nitro-1H-benzoimidazol-4-yl}-acetic acid]",75 to 99,75 to 99,25 to 50,25 to 50
O=C(Nc1ccc(-c2nc3ccc([N+](=O)[O-])cc3n2O)cc1)c1ccnc(N2CCOCC2)c1 [Compound T],< 75,75 to 99,> 50,> 50
"CSc1ccc2nc(-c3ccc(NC(=O)/C=C/c4ccc(C(C)=O)cc4)cc3)n(O)c2c1 [Compound U, (E)-3-(4-Acetyl-phenyl)-N-[4-(1-hydroxy-6-methylsulfanyl-1H-benzoimidazol-2-yl)-phenyl]-acrylamide]",75 to 99,75 to 99,> 50,10 to 25
"Cc1nc(C(F)(F)F)ccc1C(=O)Nc1ccc(-c2nc3ccc([N+](=O)[O-])cc3n2O)cc1 [Compound W, N-[4-(1-Hydroxy-6-nitro-1H-benzoimidazol-2-yl)-phenyl]-2-methyl-6-trifluoromethyl-nicotinamide]",75 to 99,75 to 99,> 50,> 50
"O=C(Nc1ccc(-c2nc3ccc([N+](=O)[O-])cc3n2O)cc1)c1ccc(OCC(F)(F)F)nc1 [Compound X, N-[4-(1-Hydroxy-6-nitro-1H-benzoimidazol-2-yl)-phenyl]-6-(2,2,2-trifluoro-ethoxy)-nicotinamide]",75 to 99,75 to 99,25 to 50,25 to 50
O=C(Nc1ccc(-c2nc3ccc([N+](=O)[O-])cc3n2O)cc1)c1ccc(C(O)(O)C(F)(F)F)cc1 [E],75 to 99,75 to 99,> 50,> 50
N#Cc1ccc2nc(-c3ccc(NC(=O)c4ccc(C(O)(O)C(F)(F)F)cc4)cc3)n(O)c2c1 [F],75 to 99,75 to 99,> 50,10 to 25
O=C(/C=C/c1ccc(C(O)(O)C(F)(F)F)cc1)Nc1ccc(-c2nc3ccc([N+](=O)[O-])cc3n2O)cc1 [K],75 to 99,75 to 99,> 50,> 50
N#Cc1ccc2nc(-c3ccc(NC(=O)/C=C/c4ccc(C(O)(O)C(F)(F)F)cc4)cc3)n(O)c2c1 [L],75 to 99,75 to 99,> 50,10 to 25
CN1CCN(c2ccc(C(=O)Nc3ccc(-c4nc5ccc([N+](=O)[O-])cc5n4O)cc3)cn2)CC1 [O],75 to 99,75 to 99,> 50,> 50
O=C(O)Cc1cc([N+](=O)[O-])cc2c1nc(-c1ccc(NC(=O)c3ccc(N4CCOCC4)nc3)cc1)n2O [Q],75 to 99,75 to 99,25 to 50,25 to 50
O=C(Nc1ccc(-c2nc3ccc([N+](=O)[O-])cc3n2O)cc1)c1ccc(N2CCCCC2)nc1 [S],75 to 99,75 to 99,> 50,25 to 50
CN(C)c1ccc(C(=O)Nc2ccc(-c3nc4ccc([N+](=O)[O-])cc4n3O)cc2)cn1 [Y],< 75,75 to 99,10 to 25,10 to 25
